Article PMC6389928, “Biomolecular Interaction, Anti-Cancer and Anti-Angiogenic Properties of Cobalt(III) Schiff Base Complexes” (Scientific Reports, 2019)

Key:
A549 cells = conditions: A549, respective IC50 concentrations, 24 h
Protocol: AO/EB Staining of A549 cells: The mode of cell death induced by the complexes was deciphered using acridine orange (AO) and ethidium bromide (EB) staining protocol. Cells were cultured in 6 well plates, treated with the complexes and allowed for 24 h. Then the cells were incubated with AO and EB solutions (1 part of 100 μg/mL AO and 1 part of 100 μg/mL of EB in PBS) and examined in a fluorescent microscope (Carl Zeiss, Jena, Germany) using a UV filter (450–490 nm). Three hundred cells per sample were counted in triplicate for each dose point. The cells were scored as viable, apoptotic and necrotic as judged by the staining pattern, nuclear morphology and cytoplasmic integrity. The percentage of apoptotic and necrotic cells were calculated and the morphological changes were also photographed.

CT-DNA [1] = test: Cyclic voltammetry in the absence and presence of CT-DNA; type: binding; conditions: absence of DNA, 0.5% DMSO/PBS, glassy carbon vs saturated calomel; for cathodic peak potential Epc: Co(III) to Co(II)
Protocol: Electrochemical studies of complexes 1 and 2 were recorded in 0.5% DMSO/PBS buffer solution, with glassy carbon as working electrode vs saturated calomel as reference electrode and Pt wire as auxiliary electrode. […] On addition of CT-DNA to each cobalt complex solution, no new peak appeared. […] The decrease in voltammetric current in the presence of CT- DNA is possibly due to the diffusion of the complexes 1 and 2 bound to the large, slowly diffusing DNA molecule[39],[40]. The positive shifts indicate that complexes 1 and 2 bind to DNA through intercalation as observed in the spectroscopic studies[39],[40].
For cyclic voltammetry experiments, the electrode surfaces were freshly polished with alumina powder and then sonicated in ethanol and distilled water for 1 min prior to each experiment and the electrode was rinsed with doubly distilled water thoroughly between each polishing step. Finally, each electrode was cleaned thoroughly in an ultrasonic cleaner again with doubly distilled water. Cyclic voltammetric experiments were performed at room temperature in […] in a single compartment cell with a three-electrode configuration, namely, glassy carbon working electrode, platinum wire auxiliary electrode and saturated calomel as reference electrode. Before experiments, all solutions were deaerated with dry nitrogen gas for 10 min to remove dissolved oxygen and kept in nitrogen atmosphere throughout the experiments.

CT-DNA [2] = test: Electronic absorption titration of the complexes with CT-DNA; type: binding; conditions: for intrinsic binding constant Kb: CT-DNA, plot of [DNA]/(εa−εf) vs [DNA]; for percentage of hypochromism (% H) / red shift: absorption spectra on incremental addition of CT-DNA
Protocol: The absorption spectra of the complexes 1 and 2 were measured in presence and absence of CT-DNA, and the results are shown in Fig. 2.
The value of DNA binding constant (Kb) of the complexes 1 and 2 were calculated using the equation[32], [DNA]/(εa−εf)=[DNA]/(ε0−εf)+1/Kb(ε0−εf) where [DNA] is the concentration of DNA expressed in base pairs; εa is called as apparent extinction coefficient which is determined by calculating Aobs/[complex], εf and ε0 are the apparent free and fully-bound cobalt(III) complex extinction coefficients.
The intrinsic binding constants Kb of complexes 1 and 2 were calculated from the plot of [DNA]/ (εa-εf) versus [DNA] the values are shown in Table 1. […] As both the complexes intercalated with DNA, it is expected that salicylaldehyde aromatic moiety is involved in the intercalation. […] This is due to the presence of additional aromatic phenyl ring in the salophen Schiff base ligand in complex 2 which enhanced stacking interaction between salicylaldehyde aromatic moiety and DNA bases.
Concentrated stock solution of DNA was prepared in PBS and sonicated for 25 cycles, where in each cycle consisted of 30 seconds with 1 min intervals. The DNA concentration per nucleotide was determined by electronic absorption spectroscopy using the known molar extinction coefficient value of 6600 M^−1 cm^−1 at 260 nm[79].
The stock solutions were prepared by dissolving the complexes 1 and 2 in an aqueous solution of DMSO as the co-solvent, and then diluted suitably with the corresponding buffer to the required concentrations for all the experiments. The final DMSO concentration never exceeded 0.5%. For absorption and emission spectral experiments, the DNA solutions were pre-treated with the solutions of metal complexes to ensure no change in the metal complex concentrations.
Absorption studies were performed by maintaining the constant concentration of both the complexes and varying the CT-DNA concentration. An equal amount of CT-DNA was added to the complexes and the reference solution to eliminate the absorbance of CT-DNA itself.

[3] = test system: developing blood vessels of the chicken chorioallantoic membrane; test: Chicken chorioallantoic membrane (CAM) assay; type: in vivo; conditions: for inhibition of vessel formation: 10 µM on filter paper discs, end of incubation (6 h); for angiogenic parameters (vessel size, vessel length, number of vessel branches): 10 µM, angioquant software, compared to control
Protocol: Chicken chorioallantoic membrane (CAM) assay is a well-known in vivo angiogenesis assay. To confirm the anti-angiogenic properties of cobalt complexes 1 and 2, CAM assay was performed. The complexes 1 and 2, on incubation for […], produced excellent inhibitory activity on the developing blood vessels. […] Several angiogenic parameters such as vessel size, vessel length and number of vessel branches were quantified using angioquant software as practiced in an earlier study[77] and represented as bar diagram (Fig. 5). […] This trend is also in tune with the DNA binding ability and anti-cancer activity of the complexes 1 and 2.
The Institutional Animal Care and Use Committee, an Association of New England Medical Center and Tufts (IACUC) and the National Institute of Health, USA, had established that a chick embryo that has not reached the 14th day of its developmental period would not experience pain and can, therefore, be used for experimentation without any ethical restrictions or prior protocol approval[95]–[97]. The anti-angiogenic activity was investigated on adopting the Chicken chorioallantoic membrane (CAM) assay. Briefly, specific pathogen-free (SPF) fertile chicken eggs were obtained from a government poultry farm. The eggs were incubated at 37 °C in a humid atmosphere. On the 5th day of incubation, the shell was cautiously broken using forceps. Precautions were taken to prevent puncture of any of the blood vessels during the transfer. The stock solutions were prepared by dissolving the complexes 1 and 2 in DMSO and then diluted suitably with the corresponding buffer to the required concentrations for all the experiments. The final DMSO concentration never exceeded 0.1%. Sterile filter paper discs (6 mm dia) soaked in solution of complexes (10 µM) were placed in 3 different positions over the generating blood vessels. For the control experiments sterile filter paper disks (6 mm dia) soaked with 10 µM of 0.1% of DMSO in PBS were used. Images of blood vessels (i.e., 0 h) were taken using stereo microscope (Nexius Zoom). The eggs were aseptically transferred in a humidified incubator at 37 °C and images were captured after 6 h incubation.

| Compound | mode of cell death (AO/EB staining) (A549 cells) | cathodic peak current ipc (CT-DNA [1]) | cathodic peak potential Epc (CT-DNA [1]) [V] | intrinsic binding constant Kb (CT-DNA [2]) [M⁻¹] | percentage of hypochromism (% H) (CT-DNA [2]) [%] | red shift (CT-DNA [2]) [nm] | inhibition of vessel formation [3] | angiogenic parameters (vessel size, vessel length, number of vessel branches) [3] |
| --- | --- | --- | --- | --- | --- | --- | --- | --- |
| CCCCCCCCCCCC[NH2+][Co-3]123([NH2+]CCCCCCCCCCCC)[O]c4ccccc4C=[N+]1CC[N+]2=Cc1ccccc1[O]3.[O-][Cl+3]([O-])([O-])[O-] [Complex 1, trans-[Co(salen)(DA)2](ClO4)] | most of the cells succumbed to apoptosis and a few to necrosis | −1.184 × 10^−5 A | −0.490 | 13100 | 31.54 | 10 | profound inhibition of vessel formation | reduction in all of these parameters compared to control |
| CCCCCCCCCCCC[NH2+][Co-3]123([NH2+]CCCCCCCCCCCC)[O]c4ccccc4C=[N+]1c1ccccc1[N+]2=Cc1ccccc1[O]3.[O-][Cl+3]([O-])([O-])[O-] [Complex 2, trans-[Co(salophen)(DA)2](ClO4)] | most of the cells succumbed to apoptosis and a few to necrosis | −3.622 × 10^−6 A | −0.265 | 31500 | 36.81 | 13 | profound inhibition of vessel formation | reduction in all of these parameters compared to control |
